Source: patent US20140205537A1, “LRRK2 INHIBITORS” (ZENOBIA THERAPEUTICS, INC., priority 2011, published 2014)

Columns and labels:
[1] = biological target: AMPK A1/B1/G1 (Homo sapiens, UniProt Q13131); experiment: Kinase selectivity panel: AMPK A1/B1/G1; assay type: biochemical
[2] = biological target: T1, AURKA (Homo sapiens, UniProt O14965); experiment: Kinase selectivity panel: AURKA; assay type: biochemical
T1 sequence (O14965 1-403): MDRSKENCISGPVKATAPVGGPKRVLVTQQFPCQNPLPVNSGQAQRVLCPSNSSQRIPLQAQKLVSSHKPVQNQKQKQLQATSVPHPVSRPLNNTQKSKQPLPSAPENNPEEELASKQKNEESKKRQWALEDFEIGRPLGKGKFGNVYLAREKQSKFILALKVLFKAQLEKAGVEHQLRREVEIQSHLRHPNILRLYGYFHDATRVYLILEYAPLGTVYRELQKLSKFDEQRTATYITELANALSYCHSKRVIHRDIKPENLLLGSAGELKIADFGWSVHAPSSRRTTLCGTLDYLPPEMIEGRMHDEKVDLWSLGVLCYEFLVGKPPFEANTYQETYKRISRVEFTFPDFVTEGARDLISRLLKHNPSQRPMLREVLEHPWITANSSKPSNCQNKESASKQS

[3] = biological target: BTK (Homo sapiens, UniProt Q06187); experiment: Kinase selectivity panel: BTK; assay type: biochemical
Sequence of BTK (Q06187 whole entry, species assumed): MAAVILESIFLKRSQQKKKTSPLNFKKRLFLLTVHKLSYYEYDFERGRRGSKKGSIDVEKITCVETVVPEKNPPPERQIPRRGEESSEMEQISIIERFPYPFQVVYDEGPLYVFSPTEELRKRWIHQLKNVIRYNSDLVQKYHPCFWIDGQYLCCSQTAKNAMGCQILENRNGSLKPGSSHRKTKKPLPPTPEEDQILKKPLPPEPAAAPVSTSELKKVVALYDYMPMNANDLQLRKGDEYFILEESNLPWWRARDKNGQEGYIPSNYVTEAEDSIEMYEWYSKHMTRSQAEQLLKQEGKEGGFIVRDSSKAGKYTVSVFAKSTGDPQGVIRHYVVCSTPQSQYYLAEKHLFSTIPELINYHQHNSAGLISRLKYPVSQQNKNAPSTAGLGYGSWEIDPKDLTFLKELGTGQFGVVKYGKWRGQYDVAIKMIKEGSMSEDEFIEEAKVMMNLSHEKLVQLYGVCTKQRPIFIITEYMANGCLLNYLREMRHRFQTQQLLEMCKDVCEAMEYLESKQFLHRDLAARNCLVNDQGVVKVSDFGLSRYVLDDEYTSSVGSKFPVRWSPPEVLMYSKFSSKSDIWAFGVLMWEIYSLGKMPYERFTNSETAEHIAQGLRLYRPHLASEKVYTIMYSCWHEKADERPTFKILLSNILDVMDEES

[4] = biological target: CAMK2D (Homo sapiens, UniProt Q13557); experiment: Kinase selectivity panel: CAMK2D; assay type: biochemical
Sequence of CAMK2D (Q13557 whole entry, species assumed): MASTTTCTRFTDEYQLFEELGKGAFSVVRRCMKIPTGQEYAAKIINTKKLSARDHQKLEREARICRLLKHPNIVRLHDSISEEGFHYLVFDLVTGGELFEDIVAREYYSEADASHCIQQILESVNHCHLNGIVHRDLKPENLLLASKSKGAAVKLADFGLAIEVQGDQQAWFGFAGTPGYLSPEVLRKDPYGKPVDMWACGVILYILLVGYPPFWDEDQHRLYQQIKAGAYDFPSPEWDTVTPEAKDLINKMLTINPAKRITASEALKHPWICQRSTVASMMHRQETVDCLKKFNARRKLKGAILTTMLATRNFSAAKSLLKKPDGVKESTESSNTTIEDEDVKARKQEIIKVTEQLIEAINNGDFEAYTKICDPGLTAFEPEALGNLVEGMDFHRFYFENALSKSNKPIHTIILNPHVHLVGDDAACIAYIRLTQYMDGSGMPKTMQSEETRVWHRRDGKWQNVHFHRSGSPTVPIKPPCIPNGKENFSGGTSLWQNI

[5] = biological target: CDK5/p35 (Homo sapiens, UniProt Q00535); experiment: Kinase selectivity panel: CDK5/p35; assay type: biochemical
Sequence of CDK5/p35 (Q00535 whole entry, species assumed): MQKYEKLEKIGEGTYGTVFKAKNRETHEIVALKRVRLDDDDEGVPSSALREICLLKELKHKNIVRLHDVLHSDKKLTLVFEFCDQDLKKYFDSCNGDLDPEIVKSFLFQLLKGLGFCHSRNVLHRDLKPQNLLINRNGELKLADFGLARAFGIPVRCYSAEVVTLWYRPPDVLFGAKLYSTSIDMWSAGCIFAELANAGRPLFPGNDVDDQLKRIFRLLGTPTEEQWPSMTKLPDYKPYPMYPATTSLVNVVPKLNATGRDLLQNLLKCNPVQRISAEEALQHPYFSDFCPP
Sequence of CDK5/p35 (Q15078 whole entry partner, species assumed): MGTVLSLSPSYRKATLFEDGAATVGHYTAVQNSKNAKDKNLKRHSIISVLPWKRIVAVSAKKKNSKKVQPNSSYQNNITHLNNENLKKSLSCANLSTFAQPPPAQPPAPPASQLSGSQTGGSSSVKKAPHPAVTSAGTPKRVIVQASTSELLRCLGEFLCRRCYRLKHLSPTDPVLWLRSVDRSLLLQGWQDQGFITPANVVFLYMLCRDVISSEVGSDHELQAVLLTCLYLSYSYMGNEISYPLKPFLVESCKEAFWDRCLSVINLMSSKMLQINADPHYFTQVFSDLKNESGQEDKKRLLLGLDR

[6] = biological target: CK1 gamma2 (Homo sapiens, UniProt P78368); experiment: Kinase selectivity panel: CK1 gamma2; assay type: biochemical
Sequence of CK1 gamma2 (P78368 whole entry): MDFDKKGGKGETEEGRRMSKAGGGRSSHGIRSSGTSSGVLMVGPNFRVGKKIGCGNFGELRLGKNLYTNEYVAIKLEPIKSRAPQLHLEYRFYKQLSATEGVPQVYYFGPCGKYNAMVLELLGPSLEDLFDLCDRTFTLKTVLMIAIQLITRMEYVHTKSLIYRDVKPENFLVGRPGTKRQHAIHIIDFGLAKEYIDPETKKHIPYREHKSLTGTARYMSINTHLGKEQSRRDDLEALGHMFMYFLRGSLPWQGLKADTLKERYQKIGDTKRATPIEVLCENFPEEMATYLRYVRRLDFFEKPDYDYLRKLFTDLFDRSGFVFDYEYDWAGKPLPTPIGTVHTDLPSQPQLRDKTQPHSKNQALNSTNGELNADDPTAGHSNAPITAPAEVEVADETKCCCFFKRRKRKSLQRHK

[7] = biological target: DCK2 (Homo sapiens, UniProt Q8N568); experiment: Kinase selectivity panel: DCK2; assay type: biochemical
[8] = biological target: EGFR (Homo sapiens, UniProt P00533); experiment: Kinase selectivity panel: EGFR; assay type: biochemical
Sequence of EGFR (P00533 25-1210, species assumed): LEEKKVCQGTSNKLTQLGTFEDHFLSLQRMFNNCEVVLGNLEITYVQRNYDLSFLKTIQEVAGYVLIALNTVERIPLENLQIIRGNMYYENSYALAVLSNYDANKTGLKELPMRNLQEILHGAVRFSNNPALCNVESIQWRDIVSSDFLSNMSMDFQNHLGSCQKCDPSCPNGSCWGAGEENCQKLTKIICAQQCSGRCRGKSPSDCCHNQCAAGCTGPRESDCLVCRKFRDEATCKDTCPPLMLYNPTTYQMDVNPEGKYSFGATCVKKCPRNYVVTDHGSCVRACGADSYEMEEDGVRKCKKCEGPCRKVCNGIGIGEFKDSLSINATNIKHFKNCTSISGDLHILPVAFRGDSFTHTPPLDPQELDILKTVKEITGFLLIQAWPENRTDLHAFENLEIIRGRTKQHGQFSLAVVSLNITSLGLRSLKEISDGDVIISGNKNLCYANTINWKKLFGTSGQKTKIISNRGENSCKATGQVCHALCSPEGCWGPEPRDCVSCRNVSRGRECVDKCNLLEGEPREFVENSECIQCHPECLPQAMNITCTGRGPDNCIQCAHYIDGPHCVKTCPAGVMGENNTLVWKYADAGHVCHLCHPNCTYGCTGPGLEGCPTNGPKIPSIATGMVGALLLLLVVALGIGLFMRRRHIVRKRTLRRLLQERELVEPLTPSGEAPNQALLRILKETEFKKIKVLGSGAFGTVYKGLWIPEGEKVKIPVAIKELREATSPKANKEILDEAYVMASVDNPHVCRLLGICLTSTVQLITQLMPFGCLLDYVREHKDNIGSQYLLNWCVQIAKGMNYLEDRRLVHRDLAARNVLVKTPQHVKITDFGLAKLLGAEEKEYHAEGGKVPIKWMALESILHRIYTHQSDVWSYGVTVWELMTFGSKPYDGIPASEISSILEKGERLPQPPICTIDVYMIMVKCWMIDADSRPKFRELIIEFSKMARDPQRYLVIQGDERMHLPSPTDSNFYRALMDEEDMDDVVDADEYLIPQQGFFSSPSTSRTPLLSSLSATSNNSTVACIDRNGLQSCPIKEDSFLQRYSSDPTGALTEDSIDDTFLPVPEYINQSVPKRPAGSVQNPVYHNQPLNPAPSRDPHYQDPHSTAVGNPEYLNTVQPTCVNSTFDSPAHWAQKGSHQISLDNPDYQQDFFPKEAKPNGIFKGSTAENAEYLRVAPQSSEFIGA

[9] = biological target: EPHA2 (Homo sapiens, UniProt P29317); experiment: Kinase selectivity panel: EPHA2; assay type: biochemical
Sequence of EPHA2 (P29317 24-976, species assumed): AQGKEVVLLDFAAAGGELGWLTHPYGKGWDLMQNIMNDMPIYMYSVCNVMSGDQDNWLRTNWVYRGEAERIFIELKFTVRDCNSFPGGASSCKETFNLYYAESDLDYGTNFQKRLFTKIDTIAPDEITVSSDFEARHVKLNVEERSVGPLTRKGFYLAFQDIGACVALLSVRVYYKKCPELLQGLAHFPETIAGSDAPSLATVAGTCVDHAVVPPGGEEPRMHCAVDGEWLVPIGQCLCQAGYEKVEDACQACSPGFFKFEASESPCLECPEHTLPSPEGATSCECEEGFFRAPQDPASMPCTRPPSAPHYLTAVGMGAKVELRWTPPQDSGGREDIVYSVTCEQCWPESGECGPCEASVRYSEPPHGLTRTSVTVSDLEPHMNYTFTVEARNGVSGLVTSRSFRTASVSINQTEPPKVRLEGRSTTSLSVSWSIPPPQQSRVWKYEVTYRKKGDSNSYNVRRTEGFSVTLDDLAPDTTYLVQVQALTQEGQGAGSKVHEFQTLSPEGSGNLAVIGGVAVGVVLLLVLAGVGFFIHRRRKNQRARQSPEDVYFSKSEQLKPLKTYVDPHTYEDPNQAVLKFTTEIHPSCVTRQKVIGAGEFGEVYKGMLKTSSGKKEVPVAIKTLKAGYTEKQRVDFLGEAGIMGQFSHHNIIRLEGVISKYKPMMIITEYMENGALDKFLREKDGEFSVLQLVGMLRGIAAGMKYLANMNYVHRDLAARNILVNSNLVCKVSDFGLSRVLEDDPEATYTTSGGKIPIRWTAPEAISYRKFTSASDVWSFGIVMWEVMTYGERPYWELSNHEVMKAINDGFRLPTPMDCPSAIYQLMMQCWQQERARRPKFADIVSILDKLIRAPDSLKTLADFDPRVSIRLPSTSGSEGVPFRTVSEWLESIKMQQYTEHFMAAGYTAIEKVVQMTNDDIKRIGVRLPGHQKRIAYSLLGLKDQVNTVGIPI

[10] = biological target: FGFR1 (Homo sapiens, UniProt P11362); experiment: Kinase selectivity panel: FGFR1; assay type: biochemical
[11] = biological target: mTOR (Homo sapiens, UniProt P42345); experiment: Kinase selectivity panel: mTOR; assay type: biochemical
[12] = biological target: KIT (Homo sapiens, UniProt P10721); experiment: Kinase selectivity panel: KIT; assay type: biochemical
[13] = biological target: MAPKAPK2 (Homo sapiens, UniProt P49137); experiment: Kinase selectivity panel: MAPKAPK2; assay type: biochemical
[14] = biological target: NEK1 (Homo sapiens, UniProt Q96PY6); experiment: Kinase selectivity panel: NEK1; assay type: biochemical
[15] = biological target: PAK4 (Homo sapiens, UniProt O96013); experiment: Kinase selectivity panel: PAK4; assay type: biochemical
Sequence of PAK4 (O96013 whole entry, species assumed): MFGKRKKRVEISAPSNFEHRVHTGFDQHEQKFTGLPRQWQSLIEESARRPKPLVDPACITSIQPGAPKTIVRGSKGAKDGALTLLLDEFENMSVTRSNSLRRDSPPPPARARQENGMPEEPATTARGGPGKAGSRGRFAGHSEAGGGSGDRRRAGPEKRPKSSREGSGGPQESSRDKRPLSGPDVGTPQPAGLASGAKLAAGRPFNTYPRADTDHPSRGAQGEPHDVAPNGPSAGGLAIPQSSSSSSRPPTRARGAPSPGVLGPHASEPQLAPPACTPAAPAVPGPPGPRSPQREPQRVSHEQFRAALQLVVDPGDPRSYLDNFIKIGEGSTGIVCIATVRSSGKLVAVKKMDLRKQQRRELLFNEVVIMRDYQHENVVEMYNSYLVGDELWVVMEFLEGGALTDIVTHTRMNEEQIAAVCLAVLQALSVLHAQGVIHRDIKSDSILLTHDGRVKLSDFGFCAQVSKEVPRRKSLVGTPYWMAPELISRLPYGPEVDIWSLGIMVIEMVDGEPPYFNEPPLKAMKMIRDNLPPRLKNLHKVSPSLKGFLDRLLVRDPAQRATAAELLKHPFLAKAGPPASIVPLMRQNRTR

[16] = biological target: PDGFRbeta (Homo sapiens, UniProt P09619); experiment: Kinase selectivity panel: PDGFRbeta; assay type: biochemical
[17] = biological target: PLK1 (Homo sapiens, UniProt P53350); experiment: Kinase selectivity panel: PLK1; assay type: biochemical
[18] = biological target: PKA (Homo sapiens, UniProt P17612); experiment: Kinase selectivity panel: PKA; assay type: biochemical
[19] = biological target: PKC beta1 (Homo sapiens, UniProt P05771); experiment: Kinase selectivity panel: PKC beta1; assay type: biochemical
[20] = biological target: RET (Homo sapiens, UniProt P07949); experiment: Kinase selectivity panel: RET; assay type: biochemical
[21] = biological target: G2019S LRRK2 (Homo sapiens, UniProt Q5S007, G2019S); experiment: DiscoveRx KINOMEscan binding constant (Kd); set-up: purchased DiscoveRx (KINOMEscan service); host or cells: E. coli BL21-derived host (T7 phage) or HEK-293; details: numeric value
Procedure: Compounds of formulas (II), (I), (I-A), (I-B), (I-C), (I-D), (I-D-1), (I-D-2), (I-E), (I-F), (I-G), (I-H), (I-I), (I-I-1), (I-I-2), (I-J), (I-K), (I-L), (I-M), (I-N), (I-Z-1), (I-Z-2), (I-Z-2-a), (I-Z-2-b), (I-Z-2-c), (I-Z-2-d), (I-Z-3-a), (I-Z-3-b), (I-Z-3-c), or (I-Z-3-d) were tested using DiscoveRx's KINOMEscan™ technology to measure a binding constant (Kd) to wild type and G2019S LRRK2. Kinase-tagged T7 phage strains were prepared in an E. coli host derived from the BL21 strain. E. coli were grown to log-phase and infected with T7 phage and incubated with shaking at 32° C. until lysis. The lysates were centrifuged and filtered to remove cell debris. The remaining kinases were produced in HEK-293 cells and subsequently tagged with DNA for qPCR detection. Streptavidin-coated magnetic beads were treated with biotinylated small molecule ligands for 30 minutes at room temperature to generate affinity resins for kinase assays. The liganded beads were blocked with excess biotin and washed with blocking buffer (SeaBlock (Pierce), 1% BSA, 0.05% Tween 20, 1 mM DTT) to remove unbound ligand and to reduce non-specific binding. Binding reactions were assembled by combining kinases, liganded affinity beads, and test compounds in 1× binding buffer (20% SeaBlock, 0.17×PBS, 0.05% Tween 20, 6 mM DTT). All reactions were performed in polystyrene 96-well plates in a final volume of 0.135 ml. The assay plates were incubated at room temperature with shaking for 1 hour and the affinity beads were washed with wash buffer (lx PBS, 0.05% Tween 20). The beads were then re-suspended in elution buffer (lx PBS, 0.05% Tween 20, 0.5 μM non-biotinylated affinity ligand) and incubated at room temperature with shaking for 30 minutes. The kinase concentration in the eluates was measured by qPCR. An 11-point 3-fold serial dilution of each test compound was prepared in 100% DMSO at 100× final test concentration and subsequently diluted to 1× in the assay (final DMSO concentration=[…]). Most Kds were determined using a compound top concentration=30,000 nM.

COc1ccc2c(c1)/C(=C/c1cnc(C3CCOCC3)[nH]1)C(=O)N2 [Compound 18, (3Z)-5-methoxy-3-[(2-tetrahydropyran-4-yl-1H-imidazol-5-yl)methylene]indolin-2-one]
inhibition at 0.1 µM [1]: -1%
IC50 [2]: > 10000 nM
inhibition at 0.1 µM ([2]; @0.1 uM): -1%
inhibition at 0.1 µM [3]: 4%
IC50 [4]: 276 nM
inhibition at 0.1 µM ([4]; @0.1 uM): 41%
IC50 [5]: > 10000 nM
inhibition at 0.1 µM ([5]; @0.1 uM): 1%
inhibition at 0.1 µM [6]: 6%
inhibition at 0.1 µM [7]: 8%
inhibition at 0.1 µM [8]: -3%
inhibition at 0.1 µM [9]: 2%
inhibition at 0.1 µM [10]: 9%
inhibition at 0.1 µM [11]: 12%
inhibition at 0.1 µM [12]: 4%
inhibition at 0.1 µM [13]: 4%
inhibition at 0.1 µM [14]: 10%
inhibition at 0.1 µM [15]: 1%
inhibition at 0.1 µM [16]: 4%
inhibition at 0.1 µM [17]: 12%
inhibition at 0.1 µM [18]: 2%
inhibition at 0.1 µM [19]: 4%
inhibition at 0.1 µM [20]: 3%
Kd [21]: 95 nM
